Reference: BindingDB's records for doi:10.7270/Q2319T8T (The Scripps Research Institute Molecular Screening Center, 2007)
Where a name gives a salt, the structure may show the parent alone.

Biological target: Steroidogenic factor 1 (Homo sapiens, UniProt Q13285)
Test: blockers of SF-1 LBD reporter transcription – cell-based, CHO-K1, Gal4-SF-1 LBD, luciferase luminescence, dose response (AID 600)
[1] = inactive by the depositor's call

Chain of Steroidogenic factor 1 (Q13285 whole entry, the tested form may be a part): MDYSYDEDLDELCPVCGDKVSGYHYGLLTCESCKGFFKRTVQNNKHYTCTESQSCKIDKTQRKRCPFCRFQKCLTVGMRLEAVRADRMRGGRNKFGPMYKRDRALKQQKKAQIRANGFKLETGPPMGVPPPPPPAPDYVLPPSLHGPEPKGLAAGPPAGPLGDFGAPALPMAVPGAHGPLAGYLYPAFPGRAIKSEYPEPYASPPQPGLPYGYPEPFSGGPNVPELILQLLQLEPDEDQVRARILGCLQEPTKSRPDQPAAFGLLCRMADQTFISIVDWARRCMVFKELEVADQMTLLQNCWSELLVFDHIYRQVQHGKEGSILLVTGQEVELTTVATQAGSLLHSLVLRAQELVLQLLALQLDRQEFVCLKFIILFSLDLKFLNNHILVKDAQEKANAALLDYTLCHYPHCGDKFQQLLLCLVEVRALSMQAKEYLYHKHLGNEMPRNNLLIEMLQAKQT

Row | IC50 | IC50 [1] | SMILES
1 | 10.6 µM |  | CC(C)c1ccc2oc(-c3cc(N)ccc3O)nc2c1 [(6E)-4-amino-6-(5-isopropyl-3H-1,3-benzoxazol-2-ylidene)cyclohexa-2,4-dien-1-one]
2 | 5.66 µM |  | CCc1ccc2oc(-c3cc(N=Cc4cccc(OC)c4O)ccc3O)nc2c1 [(6E)-6-[[[(3E)-3-(5-ethyl-3H-1,3-benzoxazol-2-ylidene)-4-keto-cyclohexa-1,5-dien-1-yl]amino]methylene]-2-methoxy-cyclohexa-2,4-dien-1-one]
3 | 0.54 µM |  | COc1cccc2c1C(=O)c1c(O)c3c(c(O)c1C2=O)C[C@@](O)(C(C)=O)C[C@@H]3O[C@H]1C[C@H](N)[C@H](O)[C@H](C)O1 [(7S,9S)-9-acetyl-7-[(2R,4S,5S,6S)-4-amino-5-hydroxy-6-methyloxan-2-yl]oxy-6,9,11-trihydroxy-4-methoxy-8,10-dihydro-7H-tetracene-5,12-dione;hydrochloride]
4 | 14.7 µM |  | N#CC1C(=N)C(C#N)(C#N)[C@H](c2ccncc2)[C@H]2CN(C(=O)OCc3ccccc3)CC=C12 (stereo partly drawn) [(8S,8aR)-6-amino-5,7,7-tricyano-8-(4-pyridyl)-1,3,8,8a-tetrahydroisoquinoline-2-carboxylic acid benzyl ester]
5 | 6.19 µM |  | CCn1c2ccccc2c2cc(Nc3cc(C)nc4ncnn34)ccc21 [(9-ethylcarbazol-3-yl)-(5-methyl-[1,2,4]triazolo[1,5-a]pyrimidin-7-yl)amine]
6 | > 11 µM |  | Cc1ccc(C(=O)CC=Nc2ccccn2)cc1 [(E)-1-(4-methylphenyl)-3-(2-pyridinylamino)-2-propen-1-one]
7 | > 11 µM |  | CN(C)c1ccc(N=CCC(=O)c2ccccc2)cc1 [(E)-3-[4-(dimethylamino)anilino]-1-phenyl-2-propen-1-one]
8 | 6.09 µM |  | O=C(CC=Nc1ccccn1)c1ccc(Cl)cc1 [(Z)-1-(4-chlorophenyl)-3-(2-pyridinylamino)-2-propen-1-one]
9 |  | 18 µM | O=S(=O)(C/C(=C/CO)S(=O)(=O)c1ccccc1)c1ccccc1 [(Z)-3,4-bis(benzenesulfonyl)but-2-en-1-ol]
10 | 13.6 µM |  | O=C(CC=Nc1ccc2c(c1)OCO2)c1ccccn1 [(Z)-3-(1,3-benzodioxol-5-ylamino)-1-(2-pyridinyl)-2-propen-1-one]
11 | 11.3 µM |  | CCOC(=O)c1[n-]c2ccccc2c1[N+]#N [(Z)-(3-diazonio-2-indolylidene)-ethoxymethanolate]
12 | 0.986 µM |  | CC[C@]1(O)CC2C[N@](CCc3c([nH]c4ccccc34)[C@@](C(=O)OC)(c3cc4c(cc3OC)N(C)[C@H]3[C@@](O)(C(=O)OC)[C@H](OC(C)=O)[C@]5(CC)C=CCN6CC[C@]43[C@@H]65)C2)C1 [(vinblastine) methyl 12-ethyl-4-[17-ethyl-17-hydroxy-13-methyloxycarbonyl-(13S,15R,17S)-1,11-diazatetracyclo[13.3.1.04,12.05,10]nonadeca-4(12),5,7,9-tetraen-13-yl]-10-hydroxy-5-methoxy-8-methyl-11-methylcarbonyloxy-(10S,11R,12R)-8,16-diazapentac sulfuric acid]
13 | 0.964 µM |  | COc1cccc2c1C(=O)c1c(O)c3c(c(O)c1C2=O)C[C@@](O)(C(=O)CO)C[C@@H]3O[C@H]1C[C@H](N)[C@H](O)[C@H](C)O1 [MLS000028393]
14 | 8.36 µM |  | CCOc1cc(C(=O)CSc2nnc(CNc3ccc(Cl)cc3)o2)ccc1NC(=O)CC [MLS000032332]
15 | 5.09 µM |  | Nc1ccc(-c2nc3c(Cl)cc(N)cc3[nH]2)cc1 [MLS000034140]
16 | 8.52 µM |  | Cc1cnc(NC(=O)CN2CCN(c3ccccn3)CC2)s1 [MLS000035284]
17 | > 1.22 µM |  | Cc1cccc(NC(=O)CSc2nnc(-c3cc(C)n(-c4ccccc4)c3C)o2)c1C [MLS000036049]
18 |  | 15.6 µM | CC(=O)c1sc(NC(=O)C2(F)C(F)(F)C(F)(F)C(F)(F)C(F)(F)C2(F)F)nc1C [MLS000040071]
19 |  | 10.1 µM | COc1ccc(CCNc2nc(C)nc3c2oc2ccccc23)cc1OC [MLS000040997]
20 | 9.38 µM |  | COc1ccc(CCNc2ncnc3c2oc2ccccc23)cc1OC [MLS000041708]
21 | > 3.67 µM |  | COc1ccc(C=Nn2nnc3ccccc32)cc1 [MLS000043825]
22 | 5.09 µM |  | CS(=O)(=O)c1nc(-c2ccccc2)cc(C(F)(F)F)n1 [MLS000044644]
23 | 5.46 µM |  | CS(=O)(=O)c1nc(-c2cccs2)cc(C(F)(F)F)n1 [MLS000044645]
24 |  | 12.7 µM | CCOc1ccc(-c2cc(CCCC(=O)Nc3cc(OC)ccc3OC)no2)cc1 [MLS000045930]
25 |  | 11.4 µM | Cc1ccc(NC(=O)Cc2nn(C)c(=O)c3ccccc23)cc1F [MLS000047015]

Row | IC50 | IC50 [1] | SMILES
26 |  | 12.8 µM | Cn1nc(CC(=O)Nc2ccc3c(c2)OCCO3)c2ccccc2c1=O [MLS000047020]
27 | 5.99 µM |  | CCOc1ccccc1-n1c(SCC(=O)Nc2ccc(CC)cc2)nc2nnc(C)c-2c1N [MLS000047091]
28 | 6.92 µM |  | CCn1c2ccccc2c2cc(NC(=O)CSc3nnnn3-c3ccccc3)ccc21 [MLS000051054]
29 |  | 32.9 µM | COc1ccccc1OCC(=O)c1[nH]c(C)c(C(C)=O)c1C [MLS000053479]
30 | 8.24 µM |  | CCOC(=O)c1c(C)[nH]c(C(=O)C(C)OC(=O)c2cccc(OCc3c(C)noc3C)c2)c1C (stereo unspecified) [MLS000054923]
31 | 5.24 µM |  | O=C(NC1=NCCS1)C1COc2ccccc2O1 (stereo unspecified) [MLS000056062]
32 | 2.78 µM |  | CC(=O)Nc1ccccc1OCC(=O)c1cc(C)n(Cc2cccs2)c1C [MLS000056239]
33 | 5.15 µM |  | COc1ccc(CCNc2nnc(Sc3nnnn3-c3ccccc3)s2)cc1OC [MLS000056567]
34 | > 3.67 µM |  | CCSc1nnc(NC(=O)c2ccccn2)s1 [MLS000056851]
35 | 5.27 µM |  | O=S(=O)(Nc1cccc2ncccc12)c1cccs1 [MLS000057468]
36 | 4 µM |  | CC(=O)Nc1ccc(SCC(=O)c2cc(C)n(Cc3cccs3)c2C)cc1 [MLS000058142]
37 | 3.42 µM |  | Cc1cc(C)n(-c2ccc3cccc(NS(C)(=O)=O)c3n2)n1 [MLS000062301]
38 | > 99 µM |  | c1cncc(-c2nnc(SCc3nc4ccccc4[nH]3)o2)c1 [MLS000062679]
39 | 4.09 µM |  | O=C(Nc1ccc(N2CCOCC2)cc1)c1cnsn1 [MLS000063695]
40 | > 11 µM |  | CC1CCc2nc(NC(=O)c3ccco3)sc2C1 (stereo unspecified) [MLS000063711]
41 |  | 13.1 µM | Cc1cc(NC(=O)c2ccc3c(c2)OCCO3)no1 [MLS000064124]
42 |  | 13.5 µM | N#C/C(=C\c1ccc(O)c(O)c1)C(=O)NCCCc1ccccc1 [MLS000069704]
43 |  | 10.4 µM | CCN(C(=O)c1ccc(C(C)(C)C)cc1)c1nnc(Cn2nnc3ccccc32)s1 [MLS000072751]
44 |  | 13.4 µM | Cc1ccnc(SCC(=O)Nc2sc3c(c2C#N)CCCC3)n1 [MLS000077260]
45 | 7.72 µM |  | COc1cc(C2Nc3cccc4cccc(c34)N2)cc(OC)c1OC(C)=O [MLS000078084]
46 |  | 15.6 µM | c1ccc(CN2CCN(c3ncnc4c3[nH]c3ccccc34)CC2)cc1 [MLS000078384]
47 |  | 11.8 µM | Fc1ccc2[nH]c3c(N4CCSCC4)ncnc3c2c1 [MLS000078401]
48 |  | 36 µM | COc1ccc(OC)c(NS(=O)(=O)c2ccc(N3CCCC3=O)cc2)c1 [MLS000079343]
49 | 6.02 µM |  | COc1cc2c(cc1NC(=O)CSc1nnnn1-c1ccccc1)oc1ccccc12 [MLS000082182]
50 |  | 12.9 µM | CCOc1cc(C(=O)N2CCc3cc(OC)c(OC)cc3C2)ccc1OC(F)F [MLS000083614]

Row | IC50 | IC50 [1] | SMILES
51 | > 3.67 µM |  | Cc1nc(N2CCN(c3ccccc3)CC2)nc(O)c1Cc1cccc2ccccc12 [MLS000084491]
52 | 4.9 µM |  | O=C(CSc1nnnn1-c1ccccc1)Nc1nsc(-c2ccc(Cl)cc2)n1 [MLS000085595]
53 | 8.2 µM |  | Cc1cc(NC(=O)CCCS(=O)(=O)c2nc(-c3cccs3)cc(C(F)(F)F)n2)no1 [MLS000086269]
54 | 7.61 µM |  | CC1(C)COCN1S(=O)(=O)c1ccc(C(=O)Nc2nnc(-c3ccc(Cl)s3)o2)cc1 [MLS000086346]
55 | 5.87 µM |  | COc1ccc(-c2nc(CSCC(=O)NCc3ccco3)c(C)o2)cc1 [MLS000089353]
56 | 0.595 µM |  | COCCNC(=O)CSCc1nc(-c2ccc(SC)cc2)oc1C [MLS000089367]
57 | > 3.67 µM |  | CN(C)c1ccc(-c2nc3ccccc3n2C)cc1 [MLS000089904]
58 | > 3.67 µM |  | O=C(NCc1ccco1)c1ccc2nc3sc4c(c3c(=O)n2c1)CCCC4 [MLS000091875]
59 | > 99 µM |  | O=C(NCCCN1CCOCC1)c1csc2c1CCCC2 [MLS000093382]
60 |  | 34.5 µM | O=S(=O)(NCc1cn2ccsc2n1)c1ccc(Oc2ccccc2)cc1 [MLS000094195]
61 | 0.315 µM |  | O=c1cc(N2CCN(c3cccc(Cl)c3)CC2)[nH]c(=O)n1C1CCCCC1 [MLS000094380]
62 | 2.99 µM |  | O=c1cc(N2CCN(c3ccccc3)CC2)[nH]c(=O)n1C1CCCCC1 [MLS000094382]
63 | 8.79 µM |  | CCCC(=O)N1CCN(c2ccc(NC(=O)c3cc4ccccc4o3)cc2Cl)CC1 [MLS000096729]
64 | 5.75 µM |  | COc1ccc(C(=O)Nn2c(SCC(=O)NCc3ccco3)nc3ccccc3c2=O)cc1 [MLS000097349]
65 | > 99 µM |  | O=C(Nc1nc(-c2ccc(Cl)s2)cs1)c1ccncc1 [MLS000098514]
66 | > 1.22 µM |  | O=C(NCCOc1ccccc1)c1ccc2c(c1)OCO2 [MLS000100028]
67 | 4.2 µM |  | O=C(Nc1ccccc1)c1cccc(-c2nnc(-c3ccccc3)o2)c1 [MLS000100081]
68 | 0.292 µM |  | COc1ccc(-n2ncc3c(N(C)C4CCCCC4)ncnc32)cc1 [MLS000100813]
69 | > 3.67 µM |  | Cc1cccc(-n2ncc3c(N(C)C4CCCCC4)ncnc32)c1 [MLS000100814]
70 | 3.7 µM |  | O=C(Nc1nc2cc3c(cc2s1)OCO3)C1=COCCO1 [MLS000103798]
71 | > 3.67 µM |  | COc1ccc(C(NC(C)=O)c2ccc3cccnc3c2O)c(OC)c1 (stereo unspecified) [MLS000109349]
72 | 2.41 µM |  | CN(C)c1ccc(NC(=S)c2ccccn2)cc1 [MLS000111989]
73 | > 3.67 µM |  | Cc1cc(C=Nn2cnnc2)c(C)n1-c1ccc(OCc2ccc(F)cc2)cc1 [MLS000112167]
74 | > 3.67 µM |  | Cc1cc(C=Nn2cnnc2)c(C)n1-c1ccc(OCc2ccccc2F)cc1 [MLS000112180]

Row | SMILES | IC50 | IC50 [1]
75 | C[C@H]1CCCC=CC2C[C@H](O)CC2[C@H](O)C=CC(=O)O1 (stereo partly drawn) [(7S,12R,15S)-12,15-dihydroxy-7-methyl-8-oxabicyclo[11.3.0]hexadeca-2,10-dien-9-one] | 5.61 µM | 
76 | COc1cc2nc(CN3CC=C(c4ccccc4)CC3)nc(O)c2cc1OC [MLS000053305] | 1.3 µM | 
